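Five compound concentrations were applied to cells in 96-well plates for 48 hours; endpoints were derived by simple linear interpolation of the resulting dose-response curve. At the GI50, growth is halved. At the TGI there is no net growth.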
How the values were obtained:
Assay in all cases: NCI anticancer screen, dose series, 48 h
786-0 renal = test system: 786-0 renal
A498 renal = test system: A498 renal
A549 NSCLC = test system: A549 NSCLC
ACHN renal = test system: ACHN renal
BT-549 breast = test system: BT-549 breast
CCRF-CEM leukemia = test system: CCRF-CEM leukemia
COLO 205 colon = test system: COLO 205 colon
DU-145 prostate = test system: DU-145 prostate
EKVX NSCLC = test system: EKVX NSCLC
HCC-2998 colon = test system: HCC-2998 colon
HCT-116 colon = test system: HCT-116 colon
HCT-15 colon = test system: HCT-15 colon
HL-60(TB) leukemia = test system: HL-60(TB) leukemia
HOP-62 NSCLC = test system: HOP-62 NSCLC
HOP-92 NSCLC = test system: HOP-92 NSCLC
HS 578T breast = test system: HS 578T breast
HT29 colon = test system: HT29 colon
IGROV1 ovarian = test system: IGROV1 ovarian
K-562 leukemia = test system: K-562 leukemia
KM12 colon = test system: KM12 colon
M14 melanoma = test system: M14 melanoma
MALME-3M melanoma = test system: MALME-3M melanoma
MCF7 breast = test system: MCF7 breast
MDA-MB-435 = test system: MDA-MB-435
MOLT-4 leukemia = test system: MOLT-4 leukemia
NCI-H226 lung = test system: NCI-H226 lung
NCI-H23 lung = test system: NCI-H23 lung
NCI-H460 lung = test system: NCI-H460 lung
NCI-H522 lung = test system: NCI-H522 lung
NCI/ADR-RES ovarian = test system: NCI/ADR-RES ovarian
OVCAR-4 ovarian = test system: OVCAR-4 ovarian
OVCAR-5 ovarian = test system: OVCAR-5 ovarian
OVCAR-8 ovarian = test system: OVCAR-8 ovarian
PC-3 prostate = test system: PC-3 prostate
RPMI-8226 leukemia = test system: RPMI-8226 leukemia
RXF 393 renal = test system: RXF 393 renal
SF-268 CNS = test system: SF-268 CNS
SF-295 CNS = test system: SF-295 CNS
SF-539 CNS = test system: SF-539 CNS
SK-MEL-2 melanoma = test system: SK-MEL-2 melanoma
SK-MEL-28 melanoma = test system: SK-MEL-28 melanoma
SK-MEL-5 melanoma = test system: SK-MEL-5 melanoma
SK-OV-3 ovarian = test system: SK-OV-3 ovarian
SN12C renal = test system: SN12C renal
SNB-19 CNS = test system: SNB-19 CNS
SNB-75 CNS = test system: SNB-75 CNS
SR leukemia = test system: SR leukemia
SW-620 colon = test system: SW-620 colon
T-47D breast = test system: T-47D breast
TK-10 renal = test system: TK-10 renal
U251 CNS = test system: U251 CNS
UACC-257 melanoma = test system: UACC-257 melanoma
UACC-62 melanoma = test system: UACC-62 melanoma
UO-31 renal = test system: UO-31 renal

With CCOC(=O)c1c(NC(=O)c2ccccc2C(F)(F)F)sc2c1CCC(=O)C2 the GI50 (786-0 renal) was 4.63 µM, the TGI (786-0 renal) was over 100 µM and the GI50 (A498 renal) was 11.5 µM. The TGI (A498 renal) was 49.2 µM, the GI50 (A549 NSCLC) was 3.51 µM and the TGI (A549 NSCLC) was over 100 µM. The GI50 (ACHN renal) was 3.33 µM, the TGI (ACHN renal) was 10.4 µM and the GI50 (BT-549 breast) was 3.35 µM. It also gave a TGI (BT-549 breast) of over 100 µM, a GI50 (CCRF-CEM leukemia) of 3.24 µM and a TGI (CCRF-CEM leukemia) of over 100 µM. For the same compound, the GI50 (COLO 205 colon) was 2.12 µM, the TGI (COLO 205 colon) was 4.12 µM and the GI50 (DU-145 prostate) was 4.44 µM. For the same compound, the TGI (DU-145 prostate) was over 100 µM, the GI50 (EKVX NSCLC) was 3.41 µM and the TGI (EKVX NSCLC) was 23.6 µM. It also gave a GI50 (HCC-2998 colon) of 3.16 µM, a TGI (HCC-2998 colon) of 10.5 µM and a GI50 (HCT-116 colon) of 3.29 µM. For the same compound, the TGI (HCT-116 colon) was 12.6 µM, the GI50 (HCT-15 colon) was 2.72 µM and the TGI (HCT-15 colon) was 10.3 µM. The GI50 (HL-60(TB) leukemia) was 2.4 µM, the TGI (HL-60(TB) leukemia) was 6.48 µM and the GI50 (HOP-62 NSCLC) was 3.71 µM. The TGI (HOP-62 NSCLC) was over 100 µM, the GI50 (HOP-92 NSCLC) was 1.82 µM and the TGI (HOP-92 NSCLC) was 5.52 µM. For the same compound, the GI50 (HS 578T breast) was 4.66 µM, the TGI (HS 578T breast) was over 100 µM and the GI50 (HT29 colon) was 3.1 µM. It also gave a TGI (HT29 colon) of 8.75 µM, a GI50 (IGROV1 ovarian) of 3.09 µM and a TGI (IGROV1 ovarian) of 10.3 µM. It also gave a GI50 (K-562 leukemia) of 1.98 µM, a TGI (K-562 leukemia) of over 100 µM and a GI50 (KM12 colon) of 2.69 µM. For the same compound, the TGI (KM12 colon) was 7.21 µM, the GI50 (M14 melanoma) was 3.94 µM and the TGI (M14 melanoma) was over 100 µM. The GI50 (MALME-3M melanoma) was 2.78 µM, the TGI (MALME-3M melanoma) was 8 µM and the GI50 (MCF7 breast) was 2.79 µM. For the same compound, the TGI (MCF7 breast) was 30.2 µM, the GI50 (MDA-MB-435) was 3.18 µM and the TGI (MDA-MB-435) was 11.6 µM. The GI50 (MOLT-4 leukemia) was 3.54 µM, the TGI (MOLT-4 leukemia) was over 100 µM and the GI50 (NCI-H226 lung) was 2.94 µM. The TGI (NCI-H226 lung) was 9.47 µM, the GI50 (NCI-H23 lung) was 2.93 µM and the TGI (NCI-H23 lung) was 9.25 µM. For the same compound, the GI50 (NCI-H460 lung) was 3.48 µM, the TGI (NCI-H460 lung) was 12.1 µM and the GI50 (NCI-H522 lung) was 1.92 µM. It also gave a TGI (NCI-H522 lung) of 4.82 µM, a GI50 (NCI/ADR-RES ovarian) of 3.09 µM and a TGI (NCI/ADR-RES ovarian) of 11.2 µM. For the same compound, the GI50 (OVCAR-4 ovarian) was 3.79 µM, the TGI (OVCAR-4 ovarian) was over 100 µM and the GI50 (OVCAR-5 ovarian) was 2.52 µM. The TGI (OVCAR-5 ovarian) was 7.1 µM, the GI50 (OVCAR-8 ovarian) was 3.4 µM and the TGI (OVCAR-8 ovarian) was over 100 µM. It also gave a GI50 (PC-3 prostate) of 2.45 µM, a TGI (PC-3 prostate) of 7.68 µM and a GI50 (RPMI-8226 leukemia) of 1.95 µM. The TGI (RPMI-8226 leukemia) was 5.46 µM, the GI50 (RXF 393 renal) was 2.39 µM and the TGI (RXF 393 renal) was 8.09 µM. The GI50 (SF-268 CNS) was 3.96 µM, the TGI (SF-268 CNS) was over 100 µM and the GI50 (SF-295 CNS) was 2.58 µM. The TGI (SF-295 CNS) was 7.64 µM, the GI50 (SF-539 CNS) was 1.87 µM and the TGI (SF-539 CNS) was 3.72 µM. The GI50 (SK-MEL-2 melanoma) was 2.75 µM, the TGI (SK-MEL-2 melanoma) was 8.82 µM and the GI50 (SK-MEL-28 melanoma) was 4.51 µM. It also gave a TGI (SK-MEL-28 melanoma) of 65 µM, a GI50 (SK-MEL-5 melanoma) of 1.88 µM and a TGI (SK-MEL-5 melanoma) of 3.64 µM. The GI50 (SK-OV-3 ovarian) was 3.18 µM, the TGI (SK-OV-3 ovarian) was over 100 µM and the GI50 (SN12C renal) was 3.06 µM. The TGI (SN12C renal) was over 100 µM, the GI50 (SNB-19 CNS) was 3.85 µM and the TGI (SNB-19 CNS) was 41.2 µM. The GI50 (SNB-75 CNS) was 1.39 µM, the TGI (SNB-75 CNS) was 7.14 µM and the GI50 (SR leukemia) was 2.33 µM. The TGI (SR leukemia) was over 100 µM, the GI50 (SW-620 colon) was 2.64 µM and the TGI (SW-620 colon) was 10 µM. For the same compound, the GI50 (T-47D breast) was 3.12 µM, the TGI (T-47D breast) was over 100 µM and the GI50 (TK-10 renal) was 5.36 µM. For the same compound, the TGI (TK-10 renal) was over 100 µM, the GI50 (U251 CNS) was 0.792 µM and the TGI (U251 CNS) was 12 µM. The GI50 (UACC-257 melanoma) was 3.49 µM, the TGI (UACC-257 melanoma) was 37.8 µM and the GI50 (UACC-62 melanoma) was 2.83 µM. For the same compound, the TGI (UACC-62 melanoma) was 11.5 µM, the GI50 (UO-31 renal) was 2.3 µM and the TGI (UO-31 renal) was 7.57 µM.
